# Reference: patent US20200270588A1, “GLUCOSYL TRANSFERASE POLYPEPTIDES AND METHODS OF USE” (Syngenta Participations AG, priority 2017, published 2020)
# Experiments:
# [1] = test system: Avena bx glucosyl transferase (SEQ ID NO 8); experiment: UDP-Glo glucosyl transferase assay, purified enzyme; type: biochemical; conditions: herbicide 0.500 mM; limit of detection about 0.001
# Description: (§1) Glucosyl transferase activity is assayed via measurement of acceptor substrate-dependent production of UDP from ultrapure UDP-glucose using the Promega UDP-Glo™ method and according to the manufacturer's instructions. Assays are run in 96 well microtiter plates.
# (§2) Enzyme, typically at a stock concentration of ˜2 mg/ml is diluted to an appropriate concentration in 50 mM K^+ Hepes buffer at pH7.5 containing 0.5 mg/mL bovine serum albumin (BSA) and 5 ul aliquots of this diluted enzyme added to each well of a Perkin Elmer white ½ area 96 well plate. […] Assays are run for an appropriate time (usually 10 to 60 min) so that the amount of UDP formed lies within the most nearly linear part of the UDP standard curve and are stopped with the addition and mixing of 25 ul UDP-Glo™ detection reagent (prepared as described below). Plates are then incubated at room temperature for 60 minutes and then read in a luminescence plate reader (Perkin Elmer Envision 2130 Multilabel Reader). A UDP standard curve is run alongside each set of assays and reagent blank control assays run with DMSO in place of test herbicide. Typically, 300 pmol of UDP corresponds to a Relative Luminescence Unit (RLU) reading of about 1.5E7 and the response curve between 0 and 600 pmol is fitted to a polynomial function (see for example FIG. 2).
# (§3) The UDP-Glo™ reagents are made up and used according to the manufacturer's instructions. Thus, Nucleotide Detection Buffer and ATP are combined to make nucleotide detection reagent (NDR) dispensed into aliquots and frozen to be freshly thawed before use.
# (§4) Km and kcat values in respect of UDP-glucose are derived by carrying out experiments to measure initial rates over a suitable range of concentrations of UDP glucose out at a fixed near saturating concentration of acceptor substrate. Best fit values of kcat, Km and kcat/Km are obtained by direct fitting of the data to the Michaelis-Menten equation using Graphpad Prism™ software.
# (§5) DNA sequences, optimized for E. coli codon usage, corresponding to SEQ IDs 1-15, encoding BX8 and BX9 orthologue polypeptides derived from a range of species (as depicted in FIG. 1) were synthesized by Genewiz (South Plainfield, USA) with 5′ NdeI and 3′ XhoI restriction sites. The various orthologues were synthesized with either a N-terminal 6×His purification tag or C-terminal 6×His purification tag (i.e. tried both ways to achieve best expression of activity) and cloned into the E. coli expression plasmid pET24a (Novagen) via the NdeI and XhoI restriction sites. Expression, purification and assay was as described in Example 1.
# (§6) Assays were carried out as described in Example 1. Partly purified C-terminally his tagged w/t Larkspur enzyme (SEQ ID No 10 with a 6 amino acid C-terminal tag) catalyzed glucosyl transfer to herbicide V at a rate estimated to be about 0.0065/s/pmol at 1 mM herbicide V. The similarly-tagged w/t bx-like enzymes from rye (SEQ ID No 11) and from wheat (SEQ ID No 4) were also active but only at levels close to the detection limit at ˜0.0015/s/pmol. Further examples of assay results from further experiments are depicted in Table 14. All of the proteins were C-terminally his tagged versions of the sequences referenced except for the Zea mays bx8 SEQ ID NO: 2 which was N-terminally his tagged.
# [2] = test system: wheat bx glucosyl transferase (SEQ ID NO 4); experiment: as above; type: biochemical; conditions: for Activity: herbicide 0.500 mM, limit of detection about 0.001
# Description: as §1, §2, §3, §4, §5, §6
Compound,Activity [1],Activity [2],"rate of glucosyl transfer ([2]; herbicide V, close to the detection limit)"
CN1CC(O)N(c2cc(C(F)(F)F)c(Cl)cn2)C1=O (stereo not drawn) [XI],0.002 pmol/sec/pmol enzyme,0.001 pmol/sec/pmol enzyme,–
Cc1cnc(N2C(=O)N(C)CC2O)cc1C(F)(F)F (stereo not drawn) [XVIII],0.003 pmol/sec/pmol enzyme,0.000 pmol/sec/pmol enzyme,–
CN1CC(O)N(c2cc(C(F)(F)F)ccn2)C1=O (stereo not drawn) [Compound V],0.002 pmol/sec/pmol enzyme,0.001 pmol/sec/pmol enzyme,~0.0015 s⁻¹ pmol⁻¹
CON1C(=O)N(c2cc(C(F)(F)F)ccn2)C(O)[C@@H]1C (stereo partly drawn) [Compound VI],0.002 pmol/sec/pmol enzyme,0.000 pmol/sec/pmol enzyme,–
